How the values were obtained:
Assay in all cases: KINOMEscan competition binding
Details in all cases: compound 1.0 µM
TIE1 (human) = TIE1 (human) (UniProt P35590)
FLT3 (human) = FLT3 (human) (UniProt P36888)
PIM1 (human) = PIM1 (human) (UniProt P11309)
PDPK1 (human) = PDPK1 (human) (UniProt O15530)
[1] = molecular target: JAK2 JH1 catalytic (human) (UniProt O60674)
PRKCI (human) = PRKCI (human) (UniProt P41743)
AAK1 (human) = AAK1 (human) (UniProt Q2M2I8)
ROCK1 (human) = ROCK1 (human) (UniProt Q13464)
STK3 (human) = STK3 (human) (UniProt Q13188)
DYRK1A (human) = DYRK1A (human) (UniProt Q13627)
MAP2K2 (human) = MAP2K2 (human) (UniProt P36507)
STK4 (human) = STK4 (human) (UniProt Q13043)
[2] = system: PIK3CA (human), P42336 [H1047Y]
Sequence of PIK3CA (human), P42336 [H1047Y] (P42336 whole entry H1047Y, looked up): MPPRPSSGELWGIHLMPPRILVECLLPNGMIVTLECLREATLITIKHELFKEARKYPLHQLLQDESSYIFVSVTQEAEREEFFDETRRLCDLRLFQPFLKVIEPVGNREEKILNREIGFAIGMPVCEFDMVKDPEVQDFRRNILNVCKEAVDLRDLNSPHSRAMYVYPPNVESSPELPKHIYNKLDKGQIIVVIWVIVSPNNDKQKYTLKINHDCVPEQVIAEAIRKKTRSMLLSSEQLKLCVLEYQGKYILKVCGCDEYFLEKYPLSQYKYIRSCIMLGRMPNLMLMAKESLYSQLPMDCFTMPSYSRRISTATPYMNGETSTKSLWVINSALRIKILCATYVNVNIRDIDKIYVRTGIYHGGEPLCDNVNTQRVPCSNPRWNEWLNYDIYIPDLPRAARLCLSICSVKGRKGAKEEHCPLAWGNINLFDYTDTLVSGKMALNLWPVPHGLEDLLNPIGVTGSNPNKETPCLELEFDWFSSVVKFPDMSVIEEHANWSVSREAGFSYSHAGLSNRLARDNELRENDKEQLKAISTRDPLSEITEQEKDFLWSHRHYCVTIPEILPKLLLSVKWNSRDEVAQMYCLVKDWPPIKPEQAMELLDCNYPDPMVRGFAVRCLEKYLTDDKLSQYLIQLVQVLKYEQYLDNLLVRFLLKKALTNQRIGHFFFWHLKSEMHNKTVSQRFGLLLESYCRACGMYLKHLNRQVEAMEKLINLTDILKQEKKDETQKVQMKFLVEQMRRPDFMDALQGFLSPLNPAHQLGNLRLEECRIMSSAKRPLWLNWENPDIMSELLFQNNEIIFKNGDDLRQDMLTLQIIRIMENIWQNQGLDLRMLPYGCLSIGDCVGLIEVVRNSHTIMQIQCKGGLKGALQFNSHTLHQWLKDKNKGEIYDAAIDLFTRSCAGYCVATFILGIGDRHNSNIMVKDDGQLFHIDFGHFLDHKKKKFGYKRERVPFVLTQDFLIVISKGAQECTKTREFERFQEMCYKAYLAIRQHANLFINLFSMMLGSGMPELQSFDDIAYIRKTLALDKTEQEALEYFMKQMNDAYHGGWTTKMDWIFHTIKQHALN

MAP2K7 (human) = MAP2K7 (human) (UniProt O14733)
CDK15 (human) = CDK15 (human) (UniProt Q96Q40)
RPS6KA4 KD2 (human) = RPS6KA4 KD2 (human) (UniProt O75676)
MAP3K11 (human) = MAP3K11 (human) (UniProt Q16584)
CDK13 (human) = CDK13 (human) (UniProt Q14004)
PRKCH (human) = PRKCH (human) (UniProt P24723)
DYRK2 (human) = DYRK2 (human) (UniProt Q92630)
NEK9 (human) = NEK9 (human) (UniProt Q8TD19)
Sequence of NEK9 (human) (Q8TD19 whole entry, looked up): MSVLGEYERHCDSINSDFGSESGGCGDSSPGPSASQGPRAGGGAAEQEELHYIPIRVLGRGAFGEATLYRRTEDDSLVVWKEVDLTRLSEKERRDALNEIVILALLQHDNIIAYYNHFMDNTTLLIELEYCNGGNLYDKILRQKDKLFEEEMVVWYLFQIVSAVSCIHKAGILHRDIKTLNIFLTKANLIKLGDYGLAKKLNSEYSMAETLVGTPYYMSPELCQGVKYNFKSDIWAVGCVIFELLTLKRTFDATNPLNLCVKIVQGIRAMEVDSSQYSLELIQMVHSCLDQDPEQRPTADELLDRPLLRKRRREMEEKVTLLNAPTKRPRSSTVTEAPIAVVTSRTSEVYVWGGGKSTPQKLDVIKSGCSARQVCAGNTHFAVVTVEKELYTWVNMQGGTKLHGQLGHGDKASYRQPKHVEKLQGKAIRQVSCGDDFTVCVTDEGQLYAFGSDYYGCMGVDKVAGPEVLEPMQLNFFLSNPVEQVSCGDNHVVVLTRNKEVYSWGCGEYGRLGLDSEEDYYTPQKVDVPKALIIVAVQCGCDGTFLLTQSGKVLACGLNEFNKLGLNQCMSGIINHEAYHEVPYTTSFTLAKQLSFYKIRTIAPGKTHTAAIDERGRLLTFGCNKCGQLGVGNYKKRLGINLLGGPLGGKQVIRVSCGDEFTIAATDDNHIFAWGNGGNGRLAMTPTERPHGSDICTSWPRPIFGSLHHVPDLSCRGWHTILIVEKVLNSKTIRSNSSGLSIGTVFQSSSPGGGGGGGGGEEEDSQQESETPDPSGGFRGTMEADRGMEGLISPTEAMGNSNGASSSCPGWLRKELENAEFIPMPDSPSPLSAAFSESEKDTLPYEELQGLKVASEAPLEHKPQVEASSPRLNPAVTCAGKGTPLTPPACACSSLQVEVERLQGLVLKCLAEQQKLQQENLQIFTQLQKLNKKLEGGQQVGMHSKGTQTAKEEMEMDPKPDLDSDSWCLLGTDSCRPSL

EPHA6 (human) = EPHA6 (human) (UniProt Q9UF33)
MKNK1 (human) = MKNK1 (human) (UniProt Q9BUB5)
RPS6KA6 KD1 (human) = RPS6KA6 KD1 (human) (UniProt Q9UK32)
MAP3K13 (human) = MAP3K13 (human) (UniProt O43283)
[3] = system: EGFR (human), P00533 [746-750 del]
CDK7 (human) = CDK7 (human) (UniProt P50613)
Sequence of CDK7 (human) (P50613 whole entry, looked up): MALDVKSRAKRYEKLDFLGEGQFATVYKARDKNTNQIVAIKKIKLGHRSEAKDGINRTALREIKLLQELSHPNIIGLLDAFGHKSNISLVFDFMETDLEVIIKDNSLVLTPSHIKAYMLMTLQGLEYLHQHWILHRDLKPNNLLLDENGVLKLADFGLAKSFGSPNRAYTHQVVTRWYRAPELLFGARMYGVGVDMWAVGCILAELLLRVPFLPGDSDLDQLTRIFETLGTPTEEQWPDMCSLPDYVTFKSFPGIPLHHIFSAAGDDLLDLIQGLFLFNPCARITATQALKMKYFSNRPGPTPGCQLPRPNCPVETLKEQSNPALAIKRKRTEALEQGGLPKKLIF

[4] = system: KIT (human), P10721 [A829P]
PRKACA (human) = PRKACA (human) (UniProt P17612)
NEK2 (human) = NEK2 (human) (UniProt P51955)
SLK (human) = SLK (human) (UniProt Q9H2G2)
EPHB4 (human) = EPHB4 (human) (UniProt P54760)
CAMK2B (human) = CAMK2B (human) (UniProt Q13554)
CDC42BPA (human) = CDC42BPA (human) (UniProt Q5VT25)
TAOK3 (human) = TAOK3 (human) (UniProt Q9H2K8)
Sequence of TAOK3 (human) (Q9H2K8 whole entry, looked up): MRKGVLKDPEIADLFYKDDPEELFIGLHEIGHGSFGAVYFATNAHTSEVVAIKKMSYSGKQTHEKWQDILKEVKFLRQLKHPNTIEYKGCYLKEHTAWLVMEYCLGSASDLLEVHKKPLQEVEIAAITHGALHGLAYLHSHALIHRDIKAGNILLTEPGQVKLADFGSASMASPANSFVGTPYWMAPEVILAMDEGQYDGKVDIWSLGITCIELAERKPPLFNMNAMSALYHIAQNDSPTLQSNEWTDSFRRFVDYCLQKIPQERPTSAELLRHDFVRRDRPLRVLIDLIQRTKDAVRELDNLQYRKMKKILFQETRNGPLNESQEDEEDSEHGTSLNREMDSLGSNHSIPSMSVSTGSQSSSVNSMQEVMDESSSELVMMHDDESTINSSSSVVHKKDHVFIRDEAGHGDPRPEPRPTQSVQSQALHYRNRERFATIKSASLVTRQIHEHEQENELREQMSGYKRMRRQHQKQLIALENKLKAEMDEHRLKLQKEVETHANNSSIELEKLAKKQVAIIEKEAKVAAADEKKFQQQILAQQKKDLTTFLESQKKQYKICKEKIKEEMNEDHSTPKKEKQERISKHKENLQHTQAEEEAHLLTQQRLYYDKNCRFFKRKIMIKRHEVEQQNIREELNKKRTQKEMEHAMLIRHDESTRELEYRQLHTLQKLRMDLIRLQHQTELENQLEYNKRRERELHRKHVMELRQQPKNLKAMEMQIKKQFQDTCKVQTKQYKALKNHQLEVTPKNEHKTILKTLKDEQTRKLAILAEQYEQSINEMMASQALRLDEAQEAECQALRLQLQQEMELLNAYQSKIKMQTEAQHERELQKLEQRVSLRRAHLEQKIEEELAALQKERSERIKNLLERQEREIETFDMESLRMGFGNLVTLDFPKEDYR

PIM3 (human) = PIM3 (human) (UniProt Q86V86)
MARK3 (human) = MARK3 (human) (UniProt P27448)
PDGFRB (human) = PDGFRB (human) (UniProt P09619)
[5] = system: PIK3CA (human), P42336 [E542K]
Sequence of PIK3CA (human), P42336 [E542K] (P42336 whole entry E542K, looked up): as the sequence (P42336 whole entry H1047Y, looked up) above, with E542K, Y1047H counted along it

CSNK1G2 (human) = CSNK1G2 (human) (UniProt P78368)

Sequence of JAK2 JH1 catalytic (human) (O60674 whole entry, looked up): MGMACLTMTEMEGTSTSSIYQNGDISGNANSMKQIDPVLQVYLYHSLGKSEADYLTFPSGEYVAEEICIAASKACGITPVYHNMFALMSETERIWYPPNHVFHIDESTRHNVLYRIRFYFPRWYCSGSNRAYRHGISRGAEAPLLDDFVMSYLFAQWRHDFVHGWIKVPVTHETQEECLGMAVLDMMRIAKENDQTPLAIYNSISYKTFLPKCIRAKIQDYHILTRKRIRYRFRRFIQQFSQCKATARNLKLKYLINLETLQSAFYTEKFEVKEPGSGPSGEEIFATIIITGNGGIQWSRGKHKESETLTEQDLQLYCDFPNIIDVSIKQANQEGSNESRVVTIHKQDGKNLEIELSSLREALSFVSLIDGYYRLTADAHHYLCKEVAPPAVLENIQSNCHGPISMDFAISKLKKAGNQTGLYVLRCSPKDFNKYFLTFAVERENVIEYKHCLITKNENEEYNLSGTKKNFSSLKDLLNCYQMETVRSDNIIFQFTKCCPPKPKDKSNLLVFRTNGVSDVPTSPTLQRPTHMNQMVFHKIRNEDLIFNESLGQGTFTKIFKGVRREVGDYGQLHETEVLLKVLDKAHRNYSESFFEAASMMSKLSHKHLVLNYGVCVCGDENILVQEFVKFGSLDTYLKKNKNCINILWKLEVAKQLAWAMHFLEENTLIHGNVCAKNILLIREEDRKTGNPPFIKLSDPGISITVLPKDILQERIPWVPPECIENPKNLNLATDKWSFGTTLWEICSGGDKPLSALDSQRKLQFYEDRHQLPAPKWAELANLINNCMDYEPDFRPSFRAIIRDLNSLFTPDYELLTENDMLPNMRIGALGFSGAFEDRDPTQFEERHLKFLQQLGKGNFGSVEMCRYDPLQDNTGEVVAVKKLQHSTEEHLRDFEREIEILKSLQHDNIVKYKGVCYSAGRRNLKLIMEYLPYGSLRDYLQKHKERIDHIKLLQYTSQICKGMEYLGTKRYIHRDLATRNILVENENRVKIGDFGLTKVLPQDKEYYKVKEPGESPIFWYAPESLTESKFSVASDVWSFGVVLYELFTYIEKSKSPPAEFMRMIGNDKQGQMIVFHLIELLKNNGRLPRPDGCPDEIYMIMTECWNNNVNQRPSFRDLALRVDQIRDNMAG
Sequence of PDPK1 (human) (O15530 whole entry, looked up): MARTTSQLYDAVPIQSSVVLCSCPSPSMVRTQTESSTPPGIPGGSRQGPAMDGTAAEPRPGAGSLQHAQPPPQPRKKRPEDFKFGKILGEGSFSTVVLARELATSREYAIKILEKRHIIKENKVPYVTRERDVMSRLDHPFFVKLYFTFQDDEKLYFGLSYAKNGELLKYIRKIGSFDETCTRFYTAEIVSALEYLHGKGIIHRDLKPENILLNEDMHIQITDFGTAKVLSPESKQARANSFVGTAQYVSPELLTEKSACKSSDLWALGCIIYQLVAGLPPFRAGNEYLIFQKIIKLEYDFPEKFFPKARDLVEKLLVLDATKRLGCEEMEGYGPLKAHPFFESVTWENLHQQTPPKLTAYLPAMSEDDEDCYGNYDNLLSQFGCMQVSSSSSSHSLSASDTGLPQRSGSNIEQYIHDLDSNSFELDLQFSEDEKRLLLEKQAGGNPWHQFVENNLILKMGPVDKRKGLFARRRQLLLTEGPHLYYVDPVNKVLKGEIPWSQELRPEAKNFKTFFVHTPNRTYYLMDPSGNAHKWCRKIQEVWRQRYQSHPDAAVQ

## COCCNCCCn1c(C(=O)CF)c(-c2ccc(C)cc2)c2c(N)ncnc21
TIE1 (human)
  kinase still bound, per cent of control: 100%
FLT3 (human)
  kinase still bound, per cent of control: 71%
PIM1 (human)
  kinase still bound, per cent of control: 100%
PDPK1 (human)
  kinase still bound, per cent of control: 100%
[1]
  kinase still bound, per cent of control: 100%
PRKCI (human)
  kinase still bound, per cent of control: 75%
AAK1 (human)
  kinase still bound, per cent of control: 95%
ROCK1 (human)
  kinase still bound, per cent of control: 98%
STK3 (human)
  kinase still bound, per cent of control: 95%
DYRK1A (human)
  kinase still bound, per cent of control: 100%
MAP2K2 (human)
  kinase still bound, per cent of control: 100%
STK4 (human)
  kinase still bound, per cent of control: 94%
[2]
  kinase still bound, per cent of control: 100%
MAP2K7 (human)
  kinase still bound, per cent of control: 78%
CDK15 (human)
  kinase still bound, per cent of control: 100%
RPS6KA4 KD2 (human)
  kinase still bound, per cent of control: 100%
MAP3K11 (human)
  kinase still bound, per cent of control: 100%
CDK13 (human)
  kinase still bound, per cent of control: 90%
PRKCH (human)
  kinase still bound, per cent of control: 100%
DYRK2 (human)
  kinase still bound, per cent of control: 89%
NEK9 (human)
  kinase still bound, per cent of control: 99%
EPHA6 (human)
  kinase still bound, per cent of control: 82%
MKNK1 (human)
  kinase still bound, per cent of control: 100%
RPS6KA6 KD1 (human)
  kinase still bound, per cent of control: 90%
MAP3K13 (human)
  kinase still bound, per cent of control: 92%
[3]
  kinase still bound, per cent of control: 100%
CDK7 (human)
  kinase still bound, per cent of control: 100%
[4]
  kinase still bound, per cent of control: 85%
PRKACA (human)
  kinase still bound, per cent of control: 100%
NEK2 (human)
  kinase still bound, per cent of control: 98%
SLK (human)
  kinase still bound, per cent of control: 100%
EPHB4 (human)
  kinase still bound, per cent of control: 89%
CAMK2B (human)
  kinase still bound, per cent of control: 97%
CDC42BPA (human)
  kinase still bound, per cent of control: 92%
TAOK3 (human)
  kinase still bound, per cent of control: 100%
PIM3 (human)
  kinase still bound, per cent of control: 100%
MARK3 (human)
  kinase still bound, per cent of control: 100%
PDGFRB (human)
  kinase still bound, per cent of control: 68%
[5]
  kinase still bound, per cent of control: 100%
CSNK1G2 (human)
  kinase still bound, per cent of control: 100%

From the kinase profiling compilation of Christmann-Franck et al. (2016)
